The record followed here is patent publication US9988379B2, “GPR40 receptor agonist, methods of preparing the same, and pharmaceutical compositions containing the same as an active agent” (LG CHEM, LTD., priority 2012, dated 2018).

In the assay the target is T1, human GPR40 (Homo sapiens, UniProt O14842).
T1 construct: expressed in transfected cells; host or cells: CHO-K1
T1 sequence (O14842 whole entry): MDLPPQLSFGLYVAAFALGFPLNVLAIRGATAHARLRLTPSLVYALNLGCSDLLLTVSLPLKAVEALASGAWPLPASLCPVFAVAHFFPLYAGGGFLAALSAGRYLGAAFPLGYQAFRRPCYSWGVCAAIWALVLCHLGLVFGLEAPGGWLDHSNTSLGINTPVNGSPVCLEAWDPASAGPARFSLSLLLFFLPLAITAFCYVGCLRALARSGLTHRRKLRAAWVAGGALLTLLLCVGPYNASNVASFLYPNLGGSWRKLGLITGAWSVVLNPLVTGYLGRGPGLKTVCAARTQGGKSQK
The experiment in a line: Induction of Ca2+ (calcium flux assay) using human GPR40 expression cell line. It is filed as cell-based. The following applies: read-out: EC0.5. The protocol: Evaluation of the Test Compounds for Induction of Ca^2+ Using Human GPR40 Expression Cell Line
The cell line expressing human GPR40 was generated by transfection of the GPR40 expression vector into CHO-K1 cell, and used in the following calcium flux assay.
The cell line was cultured in cell-culture medium (F-12 (Invitrogen) supplemented with 10% (v/v) FBS (Fetal Bovine Serum; Invitrogen), 0.5 mg/ml Geneticin (Invitrogen) and 1% (v/v) Antibiotic-Antimycotic solution (Invitrogen)) under the condition of 5% CO2 and 37° C. For calcium flux assay, the cells were diluted with the cell-culture medium to a concentration of 5×10^5 cells/ml, and the diluted cell suspension was dispensed in amount of 100 μl/well to a 96-well transparent bottom black polystyrene cell culture plate (Corning) and then cultured for 24 hours. The following concentrations of test compounds were added to these cells, and then the changes in intracellular calcium concentration were measured by FlexStation II384 (Molecular Devices). The following solution was prepared before the measurement.
First, a buffer solution for assay was prepared for use in the manufacture of fluorescent dye solution. This buffer solution was prepared by adding 1M HEPES solution (Invitrogen) to HBSS (Hanks' Balanced Salt Solution) (Invitrogen) and then adding 1M NaOH (Nacalai Tesque) to adjust pH to 7.4. Then the fluorescent dye solution was prepared according to the manufacturer's instruction attached to Calcium 5 Assay Kit (Molecular Devices), and the final DMSO concentration was adjusted to 2%.
The fluorescent dye solution was added in an amount of 100 μl/well to supernatant of the cell culture plate cultured for 24 hours. The plate was cultured for 1 hour under the condition of 5% CO2 and 37° C. so that the fluorescent dye was inserted into the cell.
Test compounds (i.e., the compounds prepared in the Examples) dissolved in dimethyl sulfoxide (DMSO ACROS) were diluted 200-fold in the buffer solution for assay to prepare compound solutions corresponding to the respective concentrations. […] 50 μl of the prepared sample solutions was added to each well of 96-well polypropylene plates (NUNC), and thereby a compound plate was prepared. Finally, the compound plate and the cell culture plate cultured for 1 hour with the fluorescent dye were placed in FlexStation II384.
After the above pre-treatment, the change in the intracellular calcium concentration when each concentration of the test compound solutions was added at 50 μl was measured by FlexStation II^384.
Then, the relative activity values depending on the concentration of the compound were plotted using Prism 4 software (GraphPad) to calculate the EC0.5 value.
In general terms: Calcium flux is commonly read through the fluorescence of an indicator in the cells.
With `CC(C)n1ncc2ccc(COc3ccc([C@H](CC(=O)O)c4ccon4)cc3)cc21` [Example 96, (S)-3-[4-(1-isopropyl-1H-indazol-6-ylmethoxy)-phenyl]-3-isoxazol-3-yl-propanoic acid], the EC50 was determined as 30 nM.
In the case of `CC#C[C@@H](CC(=O)O)c1ccc(OCc2ccc3ccn(Cc4ccccc4F)c3c2C)cc1` [Example 37, (S)-3-{4-[1-(2-fluoro-benzyl)-7-methyl-1H-indol-6-ylmethoxy]-phenyl}-hex-4-ynoic acid], the EC50 worked out at 40 nM.
Regarding `CC#C[C@@H](CC(=O)O)c1ccc(OCc2ccc3ccn(Cc4cnc(C)cn4)c3c2C)cc1` [Example 44, (S)-3-{4-[7-methyl-1-(5-methyl-pyrazin-2-ylmethyl)-1H-indol-6-ylmethoxy]-phenyl}-hex-4-ynoic acid], the EC50 lay within 1 to 50 nM.
As to `CC#C[C@@H](CC(=O)O)c1ccc(OCc2ccc3cnn(Cc4ccc(C)nc4)c3c2)cc1` [Example 93, (S)-3-{4-[1-(6-methyl-pyridin-3-ylmethyl)-1H-indazol-6-ylmethoxy]-phenyl}-hex-4-ynoic acid], the EC50 was in the range of 50 to 500 nM.
Turning to `CC#C[C@@H](CC(=O)O)c1ccc(OCc2ccc3c(CN4CC[C@H](F)C4)nn(CC(C)C)c3c2C)cc1` [Example 229, (S)-3-{4-[3-((S)-3-fluoro-pyrrolidin-1-ylmethyl)-1-isobutyl-7-methyl-1H-indazol-6-ylmethoxy]-phenyl}-hex-4-ynoic acid], the EC50 turned out to be 35 nM.
Then `CC#C[C@@H](CC(=O)O)c1ccc(OCc2cccc3c(F)nn(C)c23)cc1` [Example 203, (S)-3-[4-(3-fluoro-1-methyl-1H-indazol-7-ylmethoxy)-phenyl]-hex-4-ynoic acid], with 1 to 50 nM; and `CC#C[C@@H](CC(=O)O)c1ccc(OCc2cccc3c2c(F)nn3C(C)C)cc1` [Example 194, (S)-3-[4-(3-fluoro-1-isopropyl-1H-indazol-4-ylmethoxy)-phenyl]-hex-4-ynoic acid], with 1 to 50 nM; and `O=C(O)CC1CCOc2cc(OCc3ccc4c(cnn4Cc4ccccc4)c3)ccc21` (stereo not drawn) [Example 120, [7-(1-benzyl-1H-indazol-5-ylmethoxy)-chroman-4-yl]-acetic acid], with 40 nM.
On to `CC#C[C@@H](CC(=O)O)c1ccc(OCc2cccc3c2cnn3CC(C)C)cc1` [Example 184, (S)-3-[4-(1-isobutyl-1H-indazol-4-ylmethoxy)-phenyl]-hex-4-ynoic acid], for which the EC50 was in the range of 1 to 50 nM.
On to `CC#C[C@@H](CC(=O)O)c1ccc(OCc2ccc3c(COCC)nn(CC(C)C)c3c2)cc1` [Example 191, (S)-3-[4-(3-ethoxymethyl-1-isobutyl-1H-indazol-6-ylmethoxy)-phenyl]-hex-4-ynoic acid], for which the EC50 was determined as 10 nM.
On to `CC(C)CCn1ncc2cc(COc3ccc4c(c3)OCCC4CC(=O)O)ccc21` (stereo not drawn) [Example 137, {7-[1-(3-methyl-butyl)-1H-indazol-5-ylmethoxy]-chroman-4-yl}-acetic acid], for which the EC50 was 50 to 500 nM.
Then `CC#C[C@@H](CC(=O)O)c1ccc(OCc2ccc3cnn(CC4CCCC4)c3c2)cc1` [Example 173, (S)-3-[4-(1-cyclopentylmethyl-1H-indazol-6-ylmethoxy)-phenyl]-hex-4-ynoic acid], with 1 to 50 nM; and `O=C(O)C[C@@H](c1ccc(OCc2ccc3ccn(Cc4ccc(F)cc4)c3n2)cc1)c1ccon1` [Example 95, (S)-3-{4-[1-(4-fluoro-benzyl)-1H-pyrrolo[2,3-b]pyridin-6-ylmethoxy]-phenyl}-3-isoxazol-3-yl-propanoic acid], with 100 nM; and `CC#C[C@@H](CC(=O)O)c1ccc(OCc2ccc3c(F)cn(Cc4ccccc4)c3c2C)cc1` [Example 62, (S)-3-[4-(1-benzyl-3-fluoro-7-methyl-1H-indol-6-ylmethoxy)-phenyl]-hex-4-ynoic acid], with 50 to 500 nM.
In the case of `CC#C[C@@H](CC(=O)O)c1ccc(OCc2ccc3c(CN4CCOCC4)nn(CC(C)C)c3c2)cc1` [Example 219, (S)-3-[4-(1-isobutyl-3-morpholin-4-ylmethyl-1H-indazol-6-ylmethoxy)-phenyl]-hex-4-ynoic acid], the EC50 amounted to 23 nM.
